Assay results published in patent publication US5646316A, “Bile acid inhibitors of metalloproteinase enzymes” (OsteoArthritis Sciences, Inc., priority 1995, dated 1997).
pIC50: −log10 of the molar value. Read-outs that look alike come from different tables or passages of the source.

Tests used:
collagenase = assay: Assay of Collagenase Inhibition Activity; format: biochemical; details: at 10 μM of compound; 45 minutes at 37° C.
Method: (§1) Stromelysin was first activated by trypsin. This was done by preparing a reaction mixture in B-150 (B-150 consists of 150 mM NaCl, 20 mM Tris at pH 7.8 and 0.02% sodium azide) containing a final concentration of 4 μg/mL trypsin, 1.48 μg/mL of stromelysin, and 3.15 mM CaCl2. The reaction was incubated for 30 minutes at 37° C. and then quenched by adding soybean trypsin inhibitor to a final concentration of 43.6 μg/mL. ZnCl2 was added to the reaction mixture for a total concentration of 0.24 μM.
(§2) Following preparation of the solution of activated stromelysin, assay solutions were prepared for each inhibitor being tested. A control was also prepared. First, […] of activated stromelysin (about 45 μL from the solution of activated stromelysin) were aliquotted per assay tube. A 2.5 mM solution in 100% dimethyl sulfoxide (DMSO) was prepared for each inhibitor being tested and 1 μL from each inhibitor solution was added to one of the assay tubes. In addition, 1 μL of 100% DMSO was added to the control assay tube. All assay tubes were then pre-incubated for 5 minutes.
(§3) 5 μL of a previously prepared 50 μM solution of substrate in 15% DMSO were added to each assay tube. The substrate was a methoxycumarin developed by Knight et al. FEBS Lett. 296:263-66 (1992). The tubes were then incubated for 60 minutes, at which time the reaction was stopped with the addition of 750 μL of 0.1M NaAc pH 4.0 buffer.
(§4) Substrate hydrolysis was assessed by fluorescence using a slit width of 10:10, excitation at 328 nm and emission at 393 nm. The results of these assays are listed in Table I as percent inhibition at 10 μM of the bile acid provided compound tested or as the IC50.
(§5) The assay procedure for collagenase was the same as described in Example 13 for stromelysin except that the trypsin activation was performed for 45 minutes. In addition, the incubation of the assay tubes at 37° C. was only for 45 minutes, and the final enzyme concentration is 6 nm. The results of these assays are provided in Table I as percent inhibition at 10 μM of the compound tested.

stromelysin = stromelysin (Homo sapiens, UniProt P08254); assay: Assay of Stromelysin Inhibition Activity (fluorogenic substrate hydrolysis); format: biochemical; details: for inhibition at 10 µM: read-out: percent inhibition of stromelysin
stromelysin, sequence (P08254 100-477): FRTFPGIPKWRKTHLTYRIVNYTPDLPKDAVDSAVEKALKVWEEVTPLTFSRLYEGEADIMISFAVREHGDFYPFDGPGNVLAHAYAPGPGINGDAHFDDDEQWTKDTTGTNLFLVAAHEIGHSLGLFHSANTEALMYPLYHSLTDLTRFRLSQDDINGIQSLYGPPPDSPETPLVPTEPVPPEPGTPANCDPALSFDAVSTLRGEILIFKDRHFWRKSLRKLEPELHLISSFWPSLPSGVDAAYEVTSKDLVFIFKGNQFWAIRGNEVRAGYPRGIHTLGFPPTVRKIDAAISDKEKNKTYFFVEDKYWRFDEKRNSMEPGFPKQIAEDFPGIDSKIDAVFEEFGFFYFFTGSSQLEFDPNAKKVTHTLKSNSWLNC
Method: as §1, §2, §3, §4

[1] = tested on: bovine cartilage explants; assay: Bovine Cartilage Explant Assay (35S-GAG release, rhIL-1α stimulated; tissue culture); format: cell-based; details: Bos taurus, read-out: percent inhibition of extracellular matrix damage, Tissue Culture
Description: A tissue culture assay was used to measure the ability of the compounds of the present invention to slow the degradation of the extracellular matrix by metalloproteinases. This assay measured the amount of ^35 S-glycosaminoglycan (^35 S-GAG) released from labeled bovine cartilage explants.
Knee joints from a 1 to 3 week old calf were obtained immediately after sacrifice from the Abattoir and then transported on ice. The intact joints were washed well with tap water and soaked in 50% (v/v) Povidine iodine solution, obtained from Burre National, Inc., Baltimore, Md. All subsequent steps were performed in a laminar flow tissue culture hood using standard sterile technique. The joint was immobilized in a shank holder and the joint capsule was cut open to expose the articular cartilage. Cartilage explant plugs, approximately 15 mg wet weight, were removed from the flat articulating surfaces in the lower-most region of the knee joint using a sterile steel cork-borer and collected in a 250 mL roller bottle containing about 100 mL fresh Delbecco's minimum essential medium (DMEM), obtained from Gibco BRC, Life Technologies, Gaithersburg, Md., containing 4.5 g/1 (D)-glucose and (L)-glutamine, without sodium pyruvate. The fresh media also contained enough Hepes buffer and sodium bicarbonate such that the pH was about 7.4. The media was then further supplemented just before use with 100 units Penicillin, 100 μg Streptomycin, and 50 μg (L)-ascorbic acid per mL of medium.
Once collected, the explant plugs were washed four times with 50 mL fresh DMEM. The plugs were then placed in the incubator for a minimum of 1 hour to equilibrate, before proceeding to make disks from the articulating surface of each plug. A 1 mm thick disk was sliced from individual plugs from the end that was the articulating surface of the joint. The plug was held steady in the sterile template (4 mm diameter×1.5 mm deep) using sterile forceps. A scalpel blade was used to carefully slice off the disk. Only the superficial articulating surface responded well in culture.
Individual disks obtained were transferred to a tissue culture flask containing about 100 mL fresh media. The flask containing the disks was placed in an incubator at 37° C. (with 5% CO2, 95% air) and allowed to equilibrate overnight and at least one additional day before labeling. When ready to label, the old media was replaced with 50 mL fresh media containing about 500 μCi ^35 S-Sodium Sulfate. The plugs were labeled in bulk for about 48 hours. The next morning, the "hot" media was removed and replaced with fresh "cold" media. The disks were again allowed to equilibrate overnight before being used for actual experiments.
The media in which the disks were stored was changed immediately prior to performing the assay. The disks were then returned to the incubator until the test media and the two control media had been prepared. The test media consisted of a bile acid or bile acid derivative (50 μM) being tested for its ability to inhibit extracellular matrix degradation and concomitant recombinant human Interleukin rhIL-1α (5 ng/mL) in fresh DMEM solution. The control media were identical to the test media, except that the first control media lacked rhIL-1α and the second control media lacked an inhibitor, i.e. a bile acid or bile acid derivative. 250 μL of each of the test and control media were transferred to separate 96-well TC plates. Flamed forceps were used to transfer a disk from the incubator to each 96-well TC plates that had been filled with either the test media or one of the two control media.
The TC plates were then placed in the incubator and cultured for 3-4 days (initial incubation with rhIL-1α alpha takes at least 3 days to stimulate endogenous metalloproteinases). A 50 μL aliquot of media from each TC plate was saved and counted. The rest of the media was removed with a suction device.
The cartilage disks from each TC plate were also saved for counting. […]

gelatinase (72 (Kd)) = molecular target: T1, gelatinase (72 (Kd) (Homo sapiens, UniProt P08253)); assay: Assay of Gelatinase Inhibition Activity (72 Kd gelatinase); format: biochemical; details: for inhibition at 10 µM: read-out: percent inhibition of gelatinase
T1 sequence (P08253 110-660): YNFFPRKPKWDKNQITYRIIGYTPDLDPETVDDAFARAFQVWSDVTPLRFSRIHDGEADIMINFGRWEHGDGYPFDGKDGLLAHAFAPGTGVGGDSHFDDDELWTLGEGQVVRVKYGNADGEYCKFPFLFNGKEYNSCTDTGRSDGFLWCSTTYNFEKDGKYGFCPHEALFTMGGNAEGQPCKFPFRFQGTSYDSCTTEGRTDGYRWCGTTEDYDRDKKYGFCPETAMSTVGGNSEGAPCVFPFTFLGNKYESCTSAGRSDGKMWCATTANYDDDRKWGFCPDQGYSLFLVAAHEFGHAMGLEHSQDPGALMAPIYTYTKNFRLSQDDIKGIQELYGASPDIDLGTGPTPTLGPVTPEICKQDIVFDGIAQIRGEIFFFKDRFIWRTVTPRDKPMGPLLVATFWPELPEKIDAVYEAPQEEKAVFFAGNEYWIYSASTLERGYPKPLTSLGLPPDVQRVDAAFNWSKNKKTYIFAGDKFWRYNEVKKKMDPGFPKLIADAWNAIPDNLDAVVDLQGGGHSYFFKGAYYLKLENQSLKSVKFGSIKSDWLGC
Method: as §1, §2, §3, §4
as §5, with “gelatinase (72 (Kd)” for “collagenase”, “60” for “45”, “was” for “was only”, “was 3” for “is 6”, “listed” for “provided”

chondrocytes = assay: Chondrocyte Cell Culture Matrix Breakdown Assay (35S release, rhIL-1α stimulated); format: cell-based, calf; details: at 50 μM; rhIL-1α 1 ng/ml; 22-24 hours
Method: A cell culture assay was used to measure the ability of compounds to slow the degradation of the extracellular matrix by a metalloproteinase. This assay measured the amount ^35 S released from chondrocytes grown in a media with ^35 S labeled sodium sulfate. The cell culture assay was carried out as follows:
Two or three 1 to 3 week old calf joints were obtained from an abattoir. The proximal end of the shank was at about 4-5" long to facilitate immobilization in the holder. The joint was kept cool and transported on ice. The exterior of the intact joints was washed well with a suitable anti-microbial soap, rinsed clean with warm water, rinsed in betadine and then finally rinsed with 70% ethanol. Up to this point all steps were done in a manner to ensure that the joint was kept as clean as possible. All subsequent steps were performed in a sterile field (i.e., in a Edgeguard laminar flow tissue culture hood). The joint was immobilized and the synovial fluid was aspirated with a needle and syringe. The joint was then cut open to expose the articular cartilage using a #21 scalpel. Using locking hemostats, forceps and a #15 scalpel, the cartilage was excised in full thickness pieces. Care was taken not to cut too deep because bleeding would have occurred if the subchondral bone, was penetrated. The cartilage pieces were placed into a 50 mL centrifuge tube containing 25 mL of Delbecco's phosphate buffered saline (D-PBS) supplemented with 1% antibiotic solution (penicillin, streptomycin and fungizone; GIBCO/BRL). The slices from each joint were then placed into separate 50 mL centrifuge tubes. The D-PBS was decanted and replaced with 25 mL of fresh D-PBS supplemented with antibiotics and subsequently agitated gently.
The cartilage pieces were transferred to a fresh 50 mL centrifuge tube and rinsed once more with 25 mL of D-PBS minus antibiotics. An enzymatic digestion solution containing 1 mg/mL of hyaluronidase in serum-free 1:1 DMEM/Ham's F-12 (DMEM/F12) was prepared. This solution was filter sterilized with […] Milex--GV filter and kept on ice until ready to use. The cartilage pieces were digested with approximately 5 mL of hyaluronidase solution per joint for 2×15 minutes at 37° C. in the 50 mL centrifuge tube with gentle agitation at the 15 minute mark. This procedure removed residual hyaluronic acid from the surface of the chips. The enzymatic digestion solution was then aspirated and the cartilage pieces were rinsed with 25 mL of D-PBS.
A second enzymatic digestion solution containing 2.5 mg trypsin and 2 mg collagenase P per mL serum-free DMEM/F12 was prepared. This solution was also filter sterilized with a […] Millex--GV filter and kept on ice until ready to use. The cartilage pieces were digested with approximately 5 mL of trypsin: collagenase solution per joint for 2×15 minutes at 37° C. in the 50 mL centrifuge tube with gentle agitation at the 15 minute mark. This procedure removed the synovial fibroblasts and any adherent connective tissue from the surface of the chips. The enzymatic digestion solution was then carefully removed and saved and the cartilage pieces were rinsed with 25 mL of D-PBS.
A third enzymatic solution containing 2 mgs of collagenase P (BMB) per mL serum-free DMEM/F12 was prepared. This solution was filter sterilized with a […] Millex--GV filter and kept on ice until ready to use. The pre-digested cartilage pieces were finally digested with approximately 20 mL of enzymatic digestion solution per joint for 5-6 hours at 37° C. in a Bellco stirring digestion flask, at which point the cartilage was fully digested away.
The enzymes in the synovial fibroblast and chondrocyte digest were neutralized by addition of an equal volume of DMEM/F12 supplemented with 5% fetal bovine serum. Fibroblasts were plated in DMEM at a cellular density of 6.6×10^3 cells per cm^2. […]

[2] = at 10 μM of compound, 60 minutes at 37° C.

SMILES | percent inhibition of collagenase (collagenase) | inhibition at 50 µM [1] | inhibition at 10 µM (gelatinase (72 (Kd))) | inhibition at 10 µM (stromelysin; at 10 μM of compound) | inhibition at 10 µM (gelatinase (72 (Kd)); [2]) | other results
C[C@H](CCC(=O)O)[C@H]1CC[C@H]2[C@@H]3[C@H](O)C[C@@H]4C[C@H](O)CC[C@]4(C)[C@H]3C[C@H](O)[C@]12C [Compound 7, Cholic acid, reference compound] | 21% | -90% | 4% | – | – | inhibition at 10 µM (stromelysin): 24%
C[C@H](CCC(=O)N[C@@H](Cc1c[nH]c2ccccc12)C(=O)NO)[C@H]1CC[C@H]2[C@@H]3CC[C@@H]4C[C@H](O)CC[C@]4(C)[C@H]3CC[C@]12C [Compound 18, Lithocholyl-(L)-Tryptophane Hydroxamic Acid] | 35% | – | – | 90% | 41% | inhibition at 50 µM ([1]; at 50 μM, rhIL-1α 5 ng/mL, 3-4 days): 3%
CC(C)C(CC(=O)NO)NC(=O)CC[C@@H](C)[C@H]1CC[C@H]2[C@@H]3CC[C@@H]4C[C@H](O)CC[C@]4(C)[C@H]3CC[C@]12C (stereo partly drawn) [Compound 21, Lithocholyl-β-Leucine Hydroxamic Acid] | – | – | – | – | – | percent inhibition, Cell Culture (chondrocytes): 88%; pIC50 (stromelysin; 60 minutes incubation): 5.52; pIC50 (gelatinase (72 (Kd)); 60 minutes at 37° C.): 5.15
C[C@H](CCC(=O)N[C@@H](Cc1c[nH]c2ccccc12)C(=O)O)[C@H]1CC[C@H]2[C@@H]3CC[C@@H]4C[C@H](O)CC[C@]4(C)[C@H]3CC[C@]12C [Compound 17, Lithocholyl-(L)-Tryptophane] | – | 8% | 5% | – | – | –
C[C@H](CCC(=O)NOCc1ccccc1)[C@H]1CC[C@H]2[C@@H]3CC[C@@H]4C[C@H](O)CC[C@]4(C)[C@H]3CC[C@]12C [Compound 11, Lithocholyl-O-Benzylhydroxamate] | 13% | – | – | 25% | 21% | –
